We go through seven compounds from US8822517B2, “Arylosulfonamides for the treatment of CNS diseases” (Adamed SP. Z O.O., priority 2010, dated 2014).

The target of experiment [1] is T1, serotonine transporter (SERT) receptor (Homo sapiens, UniProt P31645).
T1 construct: expressed in transfected cells; host or cells: CHO cells
In words: Binding assay SERT (h), [3H]imipramine, CHO cells. Conditions: read-out: SERT [%]. The gist of the method:
(§1)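 Compounds tested at a single 1×10^−6 M concentration against the listed radioligands; bound label counted by scintillation, with non-specific binding defined by excess unlabelled ligand and subtracted from total.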

The subject of the next experiment is adrenergic α1 receptor. As to the kind of experiment: Binding assay α1 (non-selective), [3H]prazosin, rat cerebral cortex. As to conditions: percent inhibition of control specific binding; compounds tested at 1×10^−6 M. The essentials: as §1
In experiment [2] the target is T2, serotoninergic receptor 5-HT2C (Homo sapiens, UniProt P28335).
T2 construct: expressed in transfected cells; host or cells: HEK-293 cells
T2 sequence (P28335 33-458): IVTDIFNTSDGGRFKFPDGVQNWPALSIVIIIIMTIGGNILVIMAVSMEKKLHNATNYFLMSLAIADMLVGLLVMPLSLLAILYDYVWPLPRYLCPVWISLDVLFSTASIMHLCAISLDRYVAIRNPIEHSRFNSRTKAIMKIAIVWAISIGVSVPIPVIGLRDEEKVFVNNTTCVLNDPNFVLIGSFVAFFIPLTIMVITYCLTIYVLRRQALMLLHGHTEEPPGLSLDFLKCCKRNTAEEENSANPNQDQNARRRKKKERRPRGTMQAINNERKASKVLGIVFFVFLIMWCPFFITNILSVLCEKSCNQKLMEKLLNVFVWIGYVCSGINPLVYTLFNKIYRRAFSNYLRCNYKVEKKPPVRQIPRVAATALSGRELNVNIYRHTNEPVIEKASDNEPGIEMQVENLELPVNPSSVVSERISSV
In words: Binding assay 5-HT2C (h), [3H]mesulergine, HEK-293 cells. Conditions: read-out: 5-HT2C [%]. The essentials: as §1

Experiment [3] concerns the target T3, dopaminergic D3 receptor (Homo sapiens, UniProt P35462). As to the kind of experiment: Cellular functional assay, dopaminergic D3 receptor (agonism/antagonism). Format: cell-based. Conditions: for inhibition at 1 µM: CHO, read-out: D3-antag. [%]; for activation at 1 µM: agonist effect, percent of control specific agonist response (300 nM dopamine for control), 1×10^−6 M, D3 (h), CHO cells, read-out: D3-ag [%]. As to the method: (§2) The compounds were tested at the concentration of 1×10^−6M.
(§3) In the Tables ag refers to agonism, and antag to antagonism).

Experiment [4] concerns the target T4, serotoninergic 5-HT2A receptor (Homo sapiens, UniProt P28223). As to the kind of experiment: Cellular functional assay, serotoninergic 5-HT2A receptor (agonism/antagonism). Format: cell-based. Conditions: for activation at 1 µM: read-out: 5-HT2A -ag [%]; for inhibition at 1 µM: read-out: 5-HT2A -antag [%]. The essentials:
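Human receptors tested in cell-based functional format for both agonist and antagonist modes. Single compound concentration of 1×10^−6M.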

The target in experiment [5] is T5, serotoninergic 5-HT6 receptor (Homo sapiens, UniProt P50406). In words: Cellular functional assay, serotoninergic 5-HT6 receptor (agonism/antagonism). Format: cell-based. As to conditions: for activation at 1 µM: agonist effect, percent of control specific agonist response, compounds tested at 1×10^−6M, read-out: 5-HT6-ag [%]; for inhibition at 1 µM: read-out: 5-HT6-antag. [%]. As for the experimental part: as §2, §3
T5 sequence (P50406 whole entry): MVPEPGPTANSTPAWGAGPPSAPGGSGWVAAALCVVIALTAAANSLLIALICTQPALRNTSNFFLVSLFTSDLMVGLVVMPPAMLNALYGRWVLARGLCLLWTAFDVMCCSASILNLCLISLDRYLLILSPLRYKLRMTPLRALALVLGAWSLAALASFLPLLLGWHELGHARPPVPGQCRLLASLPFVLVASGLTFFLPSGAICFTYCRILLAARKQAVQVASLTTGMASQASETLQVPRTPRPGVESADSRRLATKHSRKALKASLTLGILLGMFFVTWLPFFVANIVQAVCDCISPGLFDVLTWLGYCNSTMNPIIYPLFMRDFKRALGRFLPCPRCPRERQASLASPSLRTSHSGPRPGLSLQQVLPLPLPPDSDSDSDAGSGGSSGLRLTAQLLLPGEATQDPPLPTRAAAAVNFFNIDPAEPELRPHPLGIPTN

Experiment [6] deals with histaminergic H1 receptor (Homo sapiens, UniProt P35367). In words: Cellular functional assay, histaminergic H1 receptor (agonism/antagonism). It counts as cell-based. As to conditions: for activation at 1 µM: agonist effect, percent of control specific agonist response, compounds tested at 1×10^−6M, read-out: H1 -ag [%]; for inhibition at 1 µM: read-out: H1 -antag. [%]. As to the method: as §2, §3
Sequence of histaminergic H1 receptor (P35367 whole entry): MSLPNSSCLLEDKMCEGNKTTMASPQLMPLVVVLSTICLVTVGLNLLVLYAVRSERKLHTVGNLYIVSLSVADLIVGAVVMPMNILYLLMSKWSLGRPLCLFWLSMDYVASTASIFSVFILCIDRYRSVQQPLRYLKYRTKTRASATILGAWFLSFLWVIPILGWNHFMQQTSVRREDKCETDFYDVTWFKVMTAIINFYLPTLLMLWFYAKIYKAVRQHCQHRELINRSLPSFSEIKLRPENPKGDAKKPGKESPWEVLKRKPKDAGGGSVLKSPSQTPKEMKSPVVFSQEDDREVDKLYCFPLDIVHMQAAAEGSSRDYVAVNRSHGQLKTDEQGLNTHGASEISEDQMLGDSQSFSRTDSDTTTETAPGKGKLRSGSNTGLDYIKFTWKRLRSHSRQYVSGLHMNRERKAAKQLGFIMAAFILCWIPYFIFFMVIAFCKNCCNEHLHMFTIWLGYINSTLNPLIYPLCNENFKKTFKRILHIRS

Experiment [7] addresses T3, dopaminergic D3 receptor. As to the kind of experiment: Binding assay D3 (h), [3H]methyl-spiperone, CHO cells. Set-up: expressed in transfected cells; host or cells: CHO cells. Conditions: read-out: D3 [%]. The essentials: as §1
Experiment [8] deals with T5, serotoninergic 5-HT6 receptor. As to the kind of experiment: Binding assay 5-HT6 (h), [3H]LSD, CHO cells. Set-up: expressed in transfected cells; host or cells: CHO cells. As to conditions: read-out: 5-HT6. The essentials:
as §1

Experiment [9] has as its target serotoninergic 5-HT7 receptor (Homo sapiens, UniProt P34969). As to the kind of experiment: Binding assay 5-HT7 (h), [3H]LSD, CHO cells. Set-up: expressed in transfected cells; host or cells: CHO cells. As to conditions: read-out: 5-HT7. The essentials:
as §1

For experiment [10], the target named is T4, serotoninergic 5-HT2A receptor. In words: Binding assay 5-HT2A (h), [3H]ketanserin, HEK-293 cells. Conditions: read-out: 5-HT2A. On the set-up: expressed in transfected cells; host or cells: HEK-293 cells. The essentials:
as §1

Molecules are shown by their SMILES.

T1 sequence (P31645 whole entry): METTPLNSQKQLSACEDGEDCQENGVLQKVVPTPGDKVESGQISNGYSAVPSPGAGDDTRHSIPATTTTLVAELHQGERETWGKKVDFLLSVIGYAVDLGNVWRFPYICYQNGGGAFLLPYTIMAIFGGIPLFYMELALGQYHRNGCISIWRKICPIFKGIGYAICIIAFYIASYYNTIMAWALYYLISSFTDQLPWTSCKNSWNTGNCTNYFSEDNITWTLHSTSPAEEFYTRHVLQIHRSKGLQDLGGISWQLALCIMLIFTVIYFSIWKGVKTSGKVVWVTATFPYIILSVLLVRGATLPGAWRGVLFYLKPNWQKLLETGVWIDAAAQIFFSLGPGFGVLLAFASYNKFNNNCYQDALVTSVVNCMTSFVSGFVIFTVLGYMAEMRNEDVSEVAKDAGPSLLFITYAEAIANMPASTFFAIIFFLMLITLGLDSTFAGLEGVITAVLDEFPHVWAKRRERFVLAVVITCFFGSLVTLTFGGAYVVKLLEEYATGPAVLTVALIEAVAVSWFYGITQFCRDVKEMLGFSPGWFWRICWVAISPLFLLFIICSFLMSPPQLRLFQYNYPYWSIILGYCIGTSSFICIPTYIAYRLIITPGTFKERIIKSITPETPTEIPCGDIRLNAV
Sequence of serotoninergic 5-HT7 receptor (P34969 whole entry): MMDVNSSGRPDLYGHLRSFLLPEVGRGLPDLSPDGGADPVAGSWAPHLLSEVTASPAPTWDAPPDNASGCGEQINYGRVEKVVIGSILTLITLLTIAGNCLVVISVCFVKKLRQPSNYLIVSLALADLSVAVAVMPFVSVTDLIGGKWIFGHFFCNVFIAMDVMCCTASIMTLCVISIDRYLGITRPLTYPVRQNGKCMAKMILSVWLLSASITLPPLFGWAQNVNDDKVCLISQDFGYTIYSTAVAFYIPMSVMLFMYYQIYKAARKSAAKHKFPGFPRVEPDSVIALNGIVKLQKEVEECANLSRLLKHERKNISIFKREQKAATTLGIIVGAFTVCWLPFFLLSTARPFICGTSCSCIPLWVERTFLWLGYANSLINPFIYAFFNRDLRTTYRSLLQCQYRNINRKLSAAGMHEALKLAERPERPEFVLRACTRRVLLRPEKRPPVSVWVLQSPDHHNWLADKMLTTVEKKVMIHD
T4 sequence (P28223 whole entry): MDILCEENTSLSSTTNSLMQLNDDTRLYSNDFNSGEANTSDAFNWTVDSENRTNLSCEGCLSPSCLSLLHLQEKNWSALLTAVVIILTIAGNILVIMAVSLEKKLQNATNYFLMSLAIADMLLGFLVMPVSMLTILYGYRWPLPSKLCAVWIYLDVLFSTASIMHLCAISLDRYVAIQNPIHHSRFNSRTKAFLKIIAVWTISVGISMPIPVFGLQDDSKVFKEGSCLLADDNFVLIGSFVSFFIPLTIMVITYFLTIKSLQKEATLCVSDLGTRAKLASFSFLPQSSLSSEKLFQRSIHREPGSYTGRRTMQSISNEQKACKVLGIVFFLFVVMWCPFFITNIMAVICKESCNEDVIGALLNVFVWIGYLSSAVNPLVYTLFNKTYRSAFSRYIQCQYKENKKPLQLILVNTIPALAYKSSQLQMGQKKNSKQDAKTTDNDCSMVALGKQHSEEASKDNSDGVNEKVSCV
T3 sequence (P35462 whole entry): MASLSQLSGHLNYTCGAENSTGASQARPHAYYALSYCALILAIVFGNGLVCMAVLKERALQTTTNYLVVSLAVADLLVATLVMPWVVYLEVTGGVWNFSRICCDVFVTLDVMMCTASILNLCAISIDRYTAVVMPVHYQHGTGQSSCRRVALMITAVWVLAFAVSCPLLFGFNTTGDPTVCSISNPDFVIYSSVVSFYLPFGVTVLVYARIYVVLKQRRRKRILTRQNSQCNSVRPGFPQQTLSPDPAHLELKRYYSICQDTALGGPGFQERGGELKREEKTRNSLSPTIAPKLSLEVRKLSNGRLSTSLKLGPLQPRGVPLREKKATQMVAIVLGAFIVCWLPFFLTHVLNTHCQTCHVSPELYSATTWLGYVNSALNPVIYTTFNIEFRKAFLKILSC

As for `O=S(=O)(NCCCCN1CCN(c2noc3ccccc23)CC1)c1ccc(-c2ccccc2)cc1` [Compound 283, N-[4-[4-(1,2-Benzoxazol-3-yl)piperazin-1-yl]butyl]-4-phenylbenzenesulphonamide], the inhibition at 1 µM in experiment [1] turned out to be 24%; in experiment [2], 80%; at dopaminergic D3 receptor [3], 58%; in [4] it was 99%; in [5], 64%; in experiment [6], 41%. Also, the inhibition at 1 µM came out at 101% on dopaminergic D3 receptor [7], 96% in [8], 99% in experiment [9] and 103% in experiment [10]. Further, the “α1 [%]” value in the experiment on adrenergic α1 receptor stood at 92%. Besides, the activation at 1 µM on dopaminergic D3 receptor [3] was -10%; in experiment [4] it was 0%; in [5], 0%; in [6], 0%.
In the case of `O=S(=O)(NCCCCN1CCN(c2noc3ccccc23)CC1)c1cc2ccc(Cl)cc2s1` [Compound 288, N-[4-[4-(1,2-Benzoxazol-3-yl)piperazin-1-yl]butyl]-6-chlorobenzothiophene-2-sulphonamide], the inhibition at 1 µM in [1] was -14%; in experiment [2], 32%; on dopaminergic D3 receptor [3], 72%; in [4], 97%; in experiment [5], 74%; in [6], 57%. Also, the inhibition at 1 µM at dopaminergic D3 receptor [7] was 102%; in experiment [8], 98%; in experiment [9] it was 100%; in experiment [10], 95%. In the experiment with adrenergic α1 receptor, the “α1 [%]” value is 94%. In addition, the activation at 1 µM at dopaminergic D3 receptor [3] was 0%; in [4] it was -2%; in experiment [5], 0%; in [6], 0%.
As to `O=S(=O)(NCCCCN1CCC(c2noc3cc(F)ccc23)CC1)c1ccc(Br)cc1` [Compound 298, 4-Bromo-N-[4-[4-(6-fluoro-1,2-benzoxazol-3-yl)piperidin-1-yl]butyl]benzenesulphonamide], the inhibition at 1 µM in [1] was 35%; in experiment [2], 52%; on dopaminergic D3 receptor [3] it was 99%; in experiment [4], 99%; in experiment [5] it was 89%; in [6], 90%. The inhibition at 1 µM on dopaminergic D3 receptor [7] worked out at 98%; in experiment [8], 98%; in experiment [9] it was 100%; in experiment [10], 100%. In addition, the “α1 [%]” value in the experiment with adrenergic α1 receptor is reported as 103%. Also, the activation at 1 µM at dopaminergic D3 receptor [3] is -8%; in experiment [4] it was -1%; in experiment [5], 0%; in experiment [6], 30%.
For `O=S(=O)(NCCCCN1CCC(c2noc3cc(F)ccc23)CC1)c1csc2ccccc12` [Compound 313, N-[4-[4-(6-Fluoro-1,2-benzoxazol-3-yl)piperidin-1-yl]butyl]benzothiophene-3-sulphonamide], the inhibition at 1 µM came to 23% in experiment [1]; 59% in experiment [2]; 81% at dopaminergic D3 receptor [3]; 98% in experiment [4]; 91% in experiment [5]; 47% in experiment [6]. The inhibition at 1 µM on dopaminergic D3 receptor [7] was determined as 99%; in experiment [8] it was 100%; in experiment [9] it was 100%; in experiment [10] it was 101%. Also, the “α1 [%]” value in the experiment on adrenergic α1 receptor was determined as 100%. In addition, the activation at 1 µM on dopaminergic D3 receptor [3] was 8%; in experiment [4] it was -3%; in experiment [5], -3%; in [6], 4%.
For `O=S(=O)(NCCCCN1CCC(c2noc3cc(F)ccc23)CC1)c1cc2ccc(Cl)cc2s1` [Compound 314, 6-Chloro-N-[4-[4-(6-fluoro-1,2-benzoxazol-3-yl)piperidin-1-yl]butyl]benzothiophene-2-sulphonamide], the inhibition at 1 µM came out at 50% in experiment [1]; 85% in experiment [2]; 110% on dopaminergic D3 receptor [3]; 99% in experiment [4]; 91% in [5]; 50% in experiment [6]. Moreover, the inhibition at 1 µM came to 100% on dopaminergic D3 receptor [7], 100% in [8], 99% in experiment [9] and 102% in [10]. For the same compound, in the experiment with adrenergic α1 receptor, the “α1 [%]” value is 100%. Moreover, the activation at 1 µM is -30% on dopaminergic D3 receptor [3], -2% in [4], 0% in experiment [5] and 5% in experiment [6].
`N#Cc1cccc(S(=O)(=O)NCCCN2CCC(c3noc4cc(F)ccc34)CC2)c1` [Compound 338, 3-cyano-N-[3-[4-(6-fluoro-1,2-benzoxazol-3-yl)piperidin-1-yl]propyl]benzenesulphonamide]: the inhibition at 1 µM in [1] was 21%; in experiment [2] it was 76%; on dopaminergic D3 receptor [3] it was 109%; in experiment [4], 100%; in experiment [5] it was 88%; in experiment [6] it was 51%. Moreover, the inhibition at 1 µM on dopaminergic D3 receptor [7] is 100%; in experiment [8], 94%; in experiment [9], 98%; in experiment [10], 102%. Also, the “α1 [%]” value with adrenergic α1 receptor is recorded as 99%. In addition, the activation at 1 µM was -10% at dopaminergic D3 receptor [3], -1% in experiment [4], 0% in experiment [5] and 1% in [6].
Regarding `O=S(=O)(NCCCN1CCC(c2noc3cc(F)ccc23)CC1)c1ccc2cn[nH]c2c1` [Compound 352, N-[3-[4-(6-Fluoro-1,2-benzoxazol-3-yl)piperidin-1-yl]propyl]-1H-indazole-6-sulphonamide], the inhibition at 1 µM in experiment [1] was determined as 56%; in experiment [2], 78%; on dopaminergic D3 receptor [3], 113%; in experiment [4] it was 100%; in [5], 75%; in experiment [6], 60%. For the same compound, the inhibition at 1 µM at dopaminergic D3 receptor [7] amounted to 97%; in experiment [8], 95%; in experiment [9], 100%; in experiment [10], 101%. Further, the “α1 [%]” value in the experiment on adrenergic α1 receptor is on record as 99%. In addition, the activation at 1 µM at dopaminergic D3 receptor [3] was -18%; in [4], -1%; in [5] it was -2%; in experiment [6], 1%.
